# Results taken from patent publication US20230151437A1, “USE OF PROTEIN ASSEMBLIES TO RECORD CELLULAR EVENTS” (President and Fellows of Harvard College, priority 2021, published 2023).
# Legend:
# [1] = target: T1, intracellular HT receptors (HT-NLS) (Rhodococcus rhodochrous, UniProt P0A3G2, A155T/A167V/A172T/A224E/C128F/C176G/D78G/E160K/E257K/H272N/K175M/K195N/L47V/L88M/N227D/P291S/S2A/S58T/T264A/Y273L/Y87F); experiment: Kinetics of HT dye labeling in HEK293T cells expressing HT-NLS; type: cell-based; conditions: for effective time constant of HT dye labeling: 1 μM dye, HEK293T cells; for first-order reaction rate constant of HT dye labeling: HEK293T cells expressing HT-NLS, 0.1 μM dye, combined membrane permeation and HT reaction
# T1 construct: host or cells: HEK293T
# Description: FIGS. 13A-13C show kinetics of HT dye labeling and turnover in HEK293T cells. […] The sharpness of the dye transition was 7.5 min, as calculated by the width of the peak in the second derivative of fluorescence vs. position (purple). FIGS. 13B-13C show kinetics of HT dye reaction in HEK293T cells. HEK293T cells expressing a nucleus-targeted HT construct (HT-NLS, Addgene #82518) were incubated with 0.1 μM of the indicated dye (FIG. 3B) or 1 μM of the indicated dye (FIG. 3C), and nuclear fluorescence was monitored as a function of time. In FIG. 3B, HT-iPAK4 labeling experiments were performed with 10-fold higher dye concentrations (1 μM).
# Dye additions appeared as upward-going kinks in the fluorescence profiles (FIGS. 12D, 13A), which were located as peaks in the second derivative of fluorescence vs. position. By dividing the transition zone widths (full-width at half-maximum of the peak in the second derivative) by the assembly-specific growth rates, a mean transition zone duration of 7.5 min was calculated (FIG. 13A). To determine whether the kinetics of HT dye labeling affected the widths of these transitions, the labeling of intracellular HT receptors was measured with several different HT dyes. These measurements probed the combined effects of membrane permeation and the HT reaction. The first-order reaction rate constants were 2.9 μM^−1 min^−1 (JF525), 0.13 μM^−1 min^−1 (JFX608), and 0.27 μM^−1 min^−1 (JF669) (FIG. 13B). […] The effective time constants at 1 μM dye were: 43 min (JF503), 3.5 min (JF525), 2.0 min (JF552), 12 min (JFX608), and 17 min (JF669) (FIGS. 13A and 13C). The precision of localizing a dye transition in an assembly is not equal to the labeling time constant, but rather the precision with which one can identify the onset of the labeling reaction. For all the JF dyes, this time was much less than 10 min.
# Measurements of HT dye labeling kinetics in HEK293T cells: HEK293T cells were transfected with an inducible nuclear-localized HT protein (HT-NLS, Addgene #82518). Doxycycline (DOX, 2 μg/ml) was added 12 h after transfection to induce the expression of HT-NLS. 24 h after transfection, cells were incubated with 0.1 μM of the indicated dye, and nuclear fluorescence was monitored via wide-field epifluorescence microscopy as a function of time.
# cFos promoter = experiment: Ticker tape recording of PMA activation of cFos in neurons; type: cell-based, rat
# Excerpt: In neurons co-expressing CMV::iPAK4 (90%) and cFos::eGFP-iPAK4 (10%), assemblies initially grew with little green fluorescence. […] Sequential additions of PMA to a single dish led to distinct bands of eGFP fluorescence, clearly resolved by sharp eGFP boundaries (FIG. 5G).
# To measure timing of cFos activation relative to fiducial timestamps, CMV::iPAK4 (80%), CMV::HT-iPAK4 (10%), and cFos::eGFP-iPAK4 (10%; FIG. 5E) were co-expressed. The neurons were stained with JF552, and then switched to JF669 at t=0. PMA (1 μM) was then added at t=3, 6, or 9 h, and a second fiducial timestamp was introduced by switching back to JF552 at t=12 h. Assemblies were grown until t=22 h and then fixed and imaged (FIG. 5F).
# Chemical activation of neuronal activity: The cFos promoter was activated by phorbol 12-myristate 13-acetate (PMA; Sigma Aldrich P8139). Briefly, the PMA was first diluted with DMSO to form a 1 mM stock solution. At the designated time, 2 μl PMA stock was directly added to each 14 mm glass-bottom culture dish, which contained 2 ml BPNM/SM1 medium. The dishes were then stirred gently to mix the PMA and medium. After PMA addition, the dishes were returned to an incubator at 37° C. with 5% CO2.
# [2] = test system: Tet-ON transcription system; experiment: Ticker tape recording of DOX activation of the Tet-ON system in HEK cells; type: cell-based
# Description: FIGS. 16A-16B show recordings of impulse response of protein expression following pulsed doxycycline (DOX) activation in HEK293T cells. […] Transitions to JF669 at t=0 and to JFX608 at t=8 h provided fiducial timestamps. Transcription was activated via addition of 2 μg/mL DOX at t=−0.5 h, followed by a thorough wash at t=0 h. FIG. 16B provides three representative examples showing the GFP intensity profiles on the protein ticker tapes. Top: representative images. Bottom: fluorescence line profiles. Scale bars: […].
# As the first test of a physiological recording, iPAK4 assemblies were used to report on a transcriptional activator, the tetracycline mediated Tet-ON transcription system.^28 HEK cells were co-infected with lentivirus containing CMV::iPAK4 (60%), CMV::rTTA3 (30%), CMV::HT-iPAK4 (5%), and CMV::eGFP-iPAK4 (5%) to establish tetracycline-dependent eGFP-iPAK4 expression (FIG. 4A). After assemblies had nucleated (24 h after lentiviral infection), JF552 was added to label the initial nuclei, and JF669 was added at t=0. In different dishes, doxycycline (DOX, 2 μg/mL) was added at t=2, 4, or 6 h to activate expression of eGFP-iPAK4. Then JF552 was added again at t=8 h, and the assemblies were grown for another 8-14 h before fixation and imaging (FIG. 4B).
# T1 sequence (P0A3G2 other isoform, or with tags, fused parts or gaps with the stated changes): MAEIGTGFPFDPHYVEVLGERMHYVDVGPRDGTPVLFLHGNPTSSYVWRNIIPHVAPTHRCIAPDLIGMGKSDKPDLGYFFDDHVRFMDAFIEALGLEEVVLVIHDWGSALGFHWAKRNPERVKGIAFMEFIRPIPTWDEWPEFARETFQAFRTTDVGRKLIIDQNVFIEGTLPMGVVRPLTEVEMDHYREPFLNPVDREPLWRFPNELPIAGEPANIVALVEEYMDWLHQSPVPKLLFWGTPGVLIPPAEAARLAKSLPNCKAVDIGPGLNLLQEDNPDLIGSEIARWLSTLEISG
compound,measurement,setting,value
JFX608-HaloTag ligand,effective time constant of HT dye labeling,[1],12 min
same,first-order reaction rate constant of HT dye labeling,[1],2170 M⁻¹ s⁻¹
"CCCCCCCCCCCCCC(=O)O[C@@H]1[C@@H](C)[C@@]2(O)[C@@H](C=C(CO)C[C@]3(O)C(=O)C(C)=C[C@@H]23)[C@@H]2C(C)(C)[C@]12OC(C)=O [PMA, phorbol 12-myristate 13-acetate]",delay of eGFP onset relative to PMA addition,"cFos promoter; PMA 1 μM at t=3, 6 or 9 h, neurons, extrapolated fit",53 min
same,effect on cFos::eGFP-iPAK4 expression,"cFos promoter; PMA 1 μM, neurons co-expressing CMV::iPAK4 and cFos::eGFP-iPAK4",bands of bright green fluorescence
same,y-intercept of linear fit of eGFP onset,"cFos promoter; PMA at t=3, 6 or 9 h, neurons",ca. 1.0 h
"C[C@H]1c2cccc(O)c2C(=O)C2=C(O)[C@]3(O)C(=O)C(C(N)=O)=C(O)[C@@H](N(C)C)[C@@H]3[C@@H](O)[C@@H]21 [DOX, doxycycline]",duration of rise of eGFP-iPAK4 expression,[2]; 30-minute pulse of DOX,approximately 8 h
same,window of protein expression,[2]; 30-minute pulse of DOX,~14 h
same,offset between DOX addition and start of the green stripe (y-intercept of linear fit),"[2]; DOX 2 μg/mL at t=2, 4 or 6 h, HEK cells, N=191 assemblies",1.2 h
JF525 [reference compound],effective time constant of HT dye labeling,[1],3.5 min
same,first-order reaction rate constant of HT dye labeling,[1],48300 M⁻¹ s⁻¹
